Source: PMC12377202, “Design, synthesis, and cytotoxic evaluation of quinazoline-based derivatives as VEGER-2 inhibitors: comparative study against EGFR kinase activity, induction of apoptosis, and molecular docking study” (RSC Advances, 2025)

Tests used:
MCF-7 = test: MTT anti-proliferative assay, MCF-7; format: cell-based, human; conditions: Homo sapiens, MCF7
HepG-2 = test: MTT anti-proliferative assay, HepG-2; format: cell-based, human; conditions: Homo sapiens, HepG2
K-562 = test: MTT anti-proliferative assay, K-562; format: cell-based, human; conditions: Homo sapiens, K562
[1] = MTT cytotoxicity against normal cells; format: cell-based, human; conditions: human
HEK-293 = test: MTT cytotoxicity against normal cells; format: cell-based, human
HepG-2 cells = test: Cell cycle analysis (PI staining, flow cytometry); format: cell-based, human
Experimental: In order to cause cytotoxicity, anticancer medicines must stop cell division at specific checkpoints, which are discrete stages of the cell cycle.
Propidium iodide (PI) staining and flow cytometry analysis[74,75] were used to analyze the cell cycle for derivatives 8a and 9a, as illustrated in the SI.
(§1) through Flow cytometric analysis.
(§2) Pellets were collected again and incubated with
(§3) Total RNA from vehicle-treated
(§4) (Thermo Scientific, USA).
(§5) All experiments were performed in […]

caspase-3 = test: Caspase-3 expression level in HepG-2 cells; format: cell-based, human; conditions: for Caspase-3 ± SE: HepG-2, at IC50 concentrations, control 0.460
Experimental: (§6) All synthesized compounds were tested at their cytotoxic concentrations in HepG-2 cells for analysis of gene expression levels of apoptotic markers caspase-3, caspase-9, TNF-α, and IL-6 proteins, and only two active compounds were tested for BAX and Bcl-2 proteins.
as §1, §2, §3, §4, §5

caspase-9 = test: Caspase-9 expression level in HepG-2 cells; format: cell-based, human; conditions: for Caspase-9 ± SE: HepG-2, at IC50 concentrations, control 11.01
Experimental: as §6, §1, §2, §3, §4, §5

TNF-alpha = TNF-alpha level in HepG-2 cells; format: cell-based, human; conditions: control 43.48
Experimental: as §6, §1, §2, §3, §4, §5

IL-6R = IL-6R level in HepG-2 cells; format: cell-based, human
Experimental: as §6, §1, §2, §3, §4, §5

EGFR = EGFR (Homo sapiens, UniProt P00533); test: EGFR kinase inhibition assay (ELISA kit)
Chain of EGFR (P00533 25-1210): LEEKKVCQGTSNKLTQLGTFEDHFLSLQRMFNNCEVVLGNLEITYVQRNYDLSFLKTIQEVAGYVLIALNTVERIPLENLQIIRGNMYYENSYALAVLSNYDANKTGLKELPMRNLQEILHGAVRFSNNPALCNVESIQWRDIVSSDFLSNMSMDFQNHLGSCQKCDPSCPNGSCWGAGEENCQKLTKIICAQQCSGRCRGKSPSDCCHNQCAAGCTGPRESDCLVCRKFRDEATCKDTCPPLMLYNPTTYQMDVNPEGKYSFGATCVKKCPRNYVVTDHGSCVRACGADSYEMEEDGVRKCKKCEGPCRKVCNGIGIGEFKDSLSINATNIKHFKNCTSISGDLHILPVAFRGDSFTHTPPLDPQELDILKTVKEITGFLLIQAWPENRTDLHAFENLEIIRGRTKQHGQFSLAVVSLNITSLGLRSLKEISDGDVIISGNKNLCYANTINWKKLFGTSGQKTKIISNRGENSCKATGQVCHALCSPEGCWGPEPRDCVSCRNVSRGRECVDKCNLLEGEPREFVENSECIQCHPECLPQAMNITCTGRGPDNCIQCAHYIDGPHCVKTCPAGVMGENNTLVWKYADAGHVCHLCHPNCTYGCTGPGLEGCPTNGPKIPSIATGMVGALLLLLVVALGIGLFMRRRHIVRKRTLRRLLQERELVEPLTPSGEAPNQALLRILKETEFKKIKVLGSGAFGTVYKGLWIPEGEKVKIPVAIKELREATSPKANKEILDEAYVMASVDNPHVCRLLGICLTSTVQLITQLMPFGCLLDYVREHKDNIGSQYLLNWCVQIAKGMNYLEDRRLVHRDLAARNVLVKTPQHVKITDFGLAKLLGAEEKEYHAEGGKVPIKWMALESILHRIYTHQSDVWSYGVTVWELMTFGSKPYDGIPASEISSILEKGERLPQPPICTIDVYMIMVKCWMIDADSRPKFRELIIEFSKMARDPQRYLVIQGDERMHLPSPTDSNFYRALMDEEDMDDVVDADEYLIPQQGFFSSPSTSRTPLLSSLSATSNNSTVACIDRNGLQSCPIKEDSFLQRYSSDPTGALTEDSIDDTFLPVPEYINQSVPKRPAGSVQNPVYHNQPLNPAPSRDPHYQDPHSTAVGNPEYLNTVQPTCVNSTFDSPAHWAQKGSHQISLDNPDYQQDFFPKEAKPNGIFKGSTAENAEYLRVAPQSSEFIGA

VEGFR-2 = VEGFR-2 (Homo sapiens, UniProt P35968); test: In vitro VEGFR-2 inhibitory assay (ELISA kit); conditions: VEGFR-2 kinase
Chain of VEGFR-2 (P35968 20-1356): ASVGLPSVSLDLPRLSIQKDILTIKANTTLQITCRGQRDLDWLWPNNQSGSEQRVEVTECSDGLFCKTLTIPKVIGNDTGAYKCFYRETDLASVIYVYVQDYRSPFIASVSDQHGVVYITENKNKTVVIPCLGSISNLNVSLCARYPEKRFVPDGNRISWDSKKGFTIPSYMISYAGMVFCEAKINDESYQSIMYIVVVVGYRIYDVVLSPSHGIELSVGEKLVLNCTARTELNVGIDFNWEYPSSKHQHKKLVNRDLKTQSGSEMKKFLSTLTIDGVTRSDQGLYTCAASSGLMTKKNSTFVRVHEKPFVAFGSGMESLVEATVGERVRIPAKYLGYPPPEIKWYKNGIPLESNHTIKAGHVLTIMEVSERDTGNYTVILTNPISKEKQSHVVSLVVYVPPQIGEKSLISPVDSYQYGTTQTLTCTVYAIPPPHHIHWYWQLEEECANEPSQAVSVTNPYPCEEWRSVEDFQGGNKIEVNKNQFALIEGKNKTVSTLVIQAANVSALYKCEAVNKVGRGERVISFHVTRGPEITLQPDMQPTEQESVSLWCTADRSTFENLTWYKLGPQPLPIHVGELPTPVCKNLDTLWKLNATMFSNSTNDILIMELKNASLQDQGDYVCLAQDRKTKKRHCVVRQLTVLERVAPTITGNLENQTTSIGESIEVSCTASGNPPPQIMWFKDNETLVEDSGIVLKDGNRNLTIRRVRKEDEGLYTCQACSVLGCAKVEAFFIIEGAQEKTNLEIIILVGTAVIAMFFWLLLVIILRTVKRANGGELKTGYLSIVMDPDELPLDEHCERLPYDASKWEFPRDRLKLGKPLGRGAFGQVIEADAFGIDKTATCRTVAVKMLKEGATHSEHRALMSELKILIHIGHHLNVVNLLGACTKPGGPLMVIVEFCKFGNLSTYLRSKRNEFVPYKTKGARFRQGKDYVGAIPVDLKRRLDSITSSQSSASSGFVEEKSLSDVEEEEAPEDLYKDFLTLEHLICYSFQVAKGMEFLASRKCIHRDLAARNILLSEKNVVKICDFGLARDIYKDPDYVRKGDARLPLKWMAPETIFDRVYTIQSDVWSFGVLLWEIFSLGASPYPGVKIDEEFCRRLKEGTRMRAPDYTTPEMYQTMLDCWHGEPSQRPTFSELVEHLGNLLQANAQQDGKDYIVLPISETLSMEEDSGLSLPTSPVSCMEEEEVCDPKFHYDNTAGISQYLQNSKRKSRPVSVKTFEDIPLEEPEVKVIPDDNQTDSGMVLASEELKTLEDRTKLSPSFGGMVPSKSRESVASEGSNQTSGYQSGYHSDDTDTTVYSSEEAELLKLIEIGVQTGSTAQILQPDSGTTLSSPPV

O=C(Cn1cnc2cc([N+](=O)[O-])ccc2c1=O)Nc1ccccc1Cl [9b, N-(2-Chlorophenyl)-2-(7-nitro-4-oxoquinazolin-3(4H)-yl)acetamide]
viability at 0.195 µmol (MCF-7; MCF-7, 0.195 umol): 52.1% | cytotoxicity at 0.195 µmol (MCF-7; MCF-7, 0.195 umol, read-out: Toxicity %): 47.9% | viability at 0.391 µmol (MCF-7; MCF-7, 0.391 umol): 22.7% | cytotoxicity at 0.391 µmol (MCF-7; MCF-7, 0.391 umol, read-out: Toxicity %): 77.3% | viability at 0.781 µmol (MCF-7; MCF-7, 0.781 umol): 15.6% | cytotoxicity at 0.781 µmol (MCF-7; MCF-7, 0.781 umol, read-out: Toxicity %): 84.4% | viability at 1.563 µmol (MCF-7; MCF-7, 1.563 umol): 11.9% | cytotoxicity at 1.563 µmol (MCF-7; MCF-7, 1.563 umol, read-out: Toxicity %): 88.1% | viability at 3.125 µmol (MCF-7; MCF-7, 3.125 umol): 9.45% | cytotoxicity at 3.125 µmol (MCF-7; MCF-7, 3.125 umol, read-out: Toxicity %): 90.5% | viability at 6.25 µmol (MCF-7; MCF-7, 6.25 umol): 8% | cytotoxicity at 6.25 µmol (MCF-7; MCF-7, 6.25 umol, read-out: Toxicity %): 92% | viability at 12.5 µmol (MCF-7; MCF-7, 12.5 umol): 7.26% | cytotoxicity at 12.5 µmol (MCF-7; MCF-7, 12.5 umol, read-out: Toxicity %): 92.7% | viability at 25 µmol (MCF-7; MCF-7, 25 umol): 6.77% | cytotoxicity at 25 µmol (MCF-7; MCF-7, 25 umol, read-out: Toxicity %): 93.2% | IC50 (MCF-7; MTT, MCF-7, read-out: Cytotoxicity against cancer cells IC50 MCF-7): 209 ± 3.7 nM | viability at 0.195 µg/mL (HepG-2; HepG-2, 0.195 ug/ml): 49.7% | cytotoxicity at 0.195 µg/mL (HepG-2; HepG-2, 0.195 ug/ml, read-out: Toxicity %): 50.3% | viability at 0.391 µg/mL (HepG-2; HepG-2, 0.391 ug/ml): 37.3% | cytotoxicity at 0.391 µg/mL (HepG-2; HepG-2, 0.391 ug/ml, read-out: Toxicity %): 62.7% | viability at 0.781 µg/mL (HepG-2; HepG-2, 0.781 ug/ml): 27.7% | cytotoxicity at 0.781 µg/mL (HepG-2; HepG-2, 0.781 ug/ml, read-out: Toxicity %): 72.3% | viability at 1.563 µg/mL (HepG-2; HepG-2, 1.563 ug/ml): 13% | cytotoxicity at 1.563 µg/mL (HepG-2; HepG-2, 1.563 ug/ml, read-out: Toxicity %): 87% | viability at 3.125 µg/mL (HepG-2; HepG-2, 3.125 ug/ml): 9.93% | cytotoxicity at 3.125 µg/mL (HepG-2; HepG-2, 3.125 ug/ml, read-out: Toxicity %): 90.1% | viability at 6.25 µg/mL (HepG-2; HepG-2, 6.25 ug/ml): 7.8% | cytotoxicity at 6.25 µg/mL (HepG-2; HepG-2, 6.25 ug/ml, read-out: Toxicity %): 92.2% | viability at 12.5 µg/mL (HepG-2; HepG-2, 12.5 ug/ml): 6.7% | cytotoxicity at 12.5 µg/mL (HepG-2; HepG-2, 12.5 ug/ml, read-out: Toxicity %): 93.3% | viability at 25 µg/mL (HepG-2; HepG-2, 25 ug/ml): 5.93% | cytotoxicity at 25 µg/mL (HepG-2; HepG-2, 25 ug/ml, read-out: Toxicity %): 94.1% | IC50 (HepG-2; MTT, HepG-2, read-out: Cytotoxicity against cancer cells IC50 HepG-2): 194 ± 6.6 nM | viability at 0.195 µmol (K-562; K-562, 0.195 umol): 47.5% | cytotoxicity at 0.195 µmol (K-562; K-562, 0.195 umol, read-out: Toxicity %): 52.5% | viability at 0.391 µmol (K-562; K-562, 0.391 umol): 37.8% | cytotoxicity at 0.391 µmol (K-562; K-562, 0.391 umol, read-out: Toxicity %): 62.2% | viability at 0.781 µmol (K-562; K-562, 0.781 umol): 25.5% | cytotoxicity at 0.781 µmol (K-562; K-562, 0.781 umol, read-out: Toxicity %): 74.5% | viability at 1.563 µmol (K-562; K-562, 1.563 umol): 13.6% | cytotoxicity at 1.563 µmol (K-562; K-562, 1.563 umol, read-out: Toxicity %): 86.4% | viability at 3.125 µmol (K-562; K-562, 3.125 umol): 8.05% | cytotoxicity at 3.125 µmol (K-562; K-562, 3.125 umol, read-out: Toxicity %): 92% | viability at 6.25 µmol (K-562; K-562, 6.25 umol): 8.5% | cytotoxicity at 6.25 µmol (K-562; K-562, 6.25 umol, read-out: Toxicity %): 91.5% | viability at 12.5 µmol (K-562; K-562, 12.5 umol): 6.86% | cytotoxicity at 12.5 µmol (K-562; K-562, 12.5 umol, read-out: Toxicity %): 93.1% | viability at 25 µmol (K-562; K-562, 25 umol): 6.2% | cytotoxicity at 25 µmol (K-562; K-562, 25 umol, read-out: Toxicity %): 93.8% | IC50 (K-562; MTT, K-562, read-out: Cytotoxicity against cancer cells IC50 K-562): 190 ± 3.7 nM | IC50 at 3 days ([1]; HEK-293 cells (normal human embryonic kidney cells), MTT, HEK-293, read-out: Cytotoxicity against normal cell IC50 HEK-293): 1747 ± 2.6 nM | viability at 3 days, 0.195 umol/ml ([1]; HEK-293 cells (normal human embryonic kidney), HEK-293, 0.195 umol/ml): 98.1% | viability at 3 days, 0.391 umol/ml ([1]; HEK-293 cells (normal human embryonic kidney), HEK-293, 0.391 umol/ml): 76.9% | viability at 3 days, 0.781 umol/ml ([1]; HEK-293 cells (normal human embryonic kidney), HEK-293, 0.781 umol/ml): 62.1% | viability at 3 days, 1.563 umol/ml ([1]; HEK-293 cells (normal human embryonic kidney), HEK-293, 1.563 umol/ml): 52.7% | viability at 3 days, 3.125 umol/ml ([1]; HEK-293 cells (normal human embryonic kidney), HEK-293, 3.125 umol/ml): 29.7% | viability at 3 days, 6.25 umol/ml ([1]; HEK-293 cells (normal human embryonic kidney), HEK-293, 6.25 umol/ml): 17.2% | viability at 3 days, 12.5 umol/ml ([1]; HEK-293 cells (normal human embryonic kidney), HEK-293, 12.5 umol/ml): 8.78% | viability at 3 days, 25 umol/ml ([1]; HEK-293 cells (normal human embryonic kidney), HEK-293, 25 umol/ml): 6.3% | Toxicity % (HEK-293; HEK-293, 0.195 umol/ml): 1.903% | Toxicity % (HEK-293; HEK-293, 0.391 umol/ml): 23.13% | Toxicity % (HEK-293; HEK-293, 0.781 umol/ml): 37.87% | Toxicity % (HEK-293; HEK-293, 1.563 umol/ml): 47.29% | Toxicity % (HEK-293; HEK-293, 3.125 umol/ml): 70.33% | Toxicity % (HEK-293; HEK-293, 6.25 umol/ml): 82.82% | Toxicity % (HEK-293; HEK-293, 12.5 umol/ml): 91.22% | Toxicity % (HEK-293; HEK-293, 25 umol/ml): 93.7% | selectivity, cancer cells vs normal human kidney cells (fold) (HEK-293; HEK-293 vs K-562): 9 fold | selectivity, cancer cells vs normal human kidney cells (fold) (HEK-293; HEK-293 vs MCF-7): 8.4 fold | IC50 (HEK-293; Homo sapiens, HEK293, raw data, HEK-293): 1750 nM | % Sub-G1 (HepG-2 cells; HepG-2, cytotoxic concentration, 24 h, control 68.12): 94.68% | % S (HepG-2 cells; HepG-2, control 2.23): 0.19% | % G2/M (HepG-2 cells; HepG-2, control 6.52): 0.24% | % G1 (HepG-2 cells; HepG-2, control 23.14): 4.89% | Caspase-3 ± SE (caspase-3): 1.08 ± 0.028 ng/mL | Caspase-3 ± SE (caspase-3; listed as N5): 1.08 ng/mL | caspase-3 expression level, fold increase (caspase-3; HepG-2, vs control cells): 2.35 fold | Caspase-9 ± SE (caspase-9): 7.31 ± 0.93 ng/L | Caspase-9 ± SE (caspase-9; listed as N5): 7.31 ng/L | caspase-9 expression level, fold increase (caspase-9; HepG-2, vs control cells): no apoptotic effect | TNF-alpha ±SE (TNF-alpha; HepG-2, at IC50 concentrations): 27.34 ± 1.95 ng/L | TNF-alpha ±SE (TNF-alpha; raw data, HepG2): 14.37 ng/L | IL-6R ± SE (IL-6R; HepG-2, at IC50 concentrations, control 44.10): 28.78 ± 1.23 ng/L | IL-6R protein level (IL-6R; HepG-2, control 44.10%): 28.78 ng/L | IL-6 ±SE (IL-6R; raw data, HepG2, control 44.10): 19.54 ng/L | Activity % (EGFR; HepG2): 52.262% | Inhibition % (EGFR; HepG2): 47.738% | Activity % (EGFR; K-562): 47.456% | Inhibition % (EGFR; K-562): 52.544% | Activity % (EGFR; MCF7): 25.292% | Inhibition % (EGFR; MCF7): 74.708% | Activity % (VEGFR-2; HepG2): 33.564% | Inhibition % (VEGFR-2; HepG2): 66.436% | Activity % (VEGFR-2; K-562): 56.948% | Inhibition % (VEGFR-2; K-562): 43.052% | Activity % (VEGFR-2; MCF7): 80.680% | Inhibition % (VEGFR-2; MCF7): 19.320%
